# Source: US11111245B2, “Derivatives of N-cycloalkyl/heterocycloalkyl-4-(imidazo[1,2-a]pyridine)pyrimidin-2-amine as therapeutic agents” (Aucentra Therapeutics Pty Ltd, priority 2017, dated 2021)
# How the values were obtained:
# CDK4/D1 = CDK4/D1 (Homo sapiens, UniProt P11802); experiment: ADP Glo Kinase assay CDK4/D1; type: biochemical; conditions: CDK4D1; compound at 10 μM; read-out: residual activity (%) at 10 μM CDK4D1
# Method in brief: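 Compounds tested at 10 concentrations (10 μM to 0.5 nM, 1:3 steps) against CDK4/D1 or CDK6/D3, RB-CTF substrate, Tris pH 7.5 buffer with MgCl2, DTT and BSA.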
# leukemia cell lines = experiment: Resazurin cell viability assay on leukemia cell lines (72 h growth inhibition, GI50); type: cell-based; conditions: Homo sapiens, MV4-11 cells
# Method in brief: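 GI50 values from non-linear regression of growth inhibition; read-out was MTT for solid tumour cells, resazurin for leukaemia cells.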
# CDK9/T1 = CDK9/T1 (Homo sapiens, UniProt P50750); experiment: ADP Glo Kinase assay CDK9/T1; type: biochemical; conditions: CDK9T1; read-out: CDK inhibition, Ki (μM) CDK9T1
# Method in brief: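 ADP Glo luminescence, in-house: CDK4/D1, CDK6/D3 on RB-CTF substrate (Tris pH 7.5, MgCl2, DTT, BSA); CDK9/T1 on RBER-IRStide. Reaction 40 min, 37° C after ATP addition. 10-point 1:3 series, 10 μM to 0.5 nM. IC50 by 4-parameter logistic; Ki derived using ATP Km.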
# CDKs and other kinases [1] = target: T1, CDKs and other kinases (Homo sapiens, UniProt P06493); experiment: Radiometric kinase assay (Eurofins Pharma Discovery or Reaction Biology Corporation Kinase Profiler); type: biochemical; conditions: CDK1B; for Ki: read-out: CDK inhibition, Ki (μM) CDK1B; for remaining activity at 10 µM: compound at 10 μM, read-out: residual activity (%) at 10 μM CDK1B
# T1 construct: other: CDK1B; residual activity (%) at 10 μM CDK1B; compound at 10 μM
# Method in brief: (§1)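 Other CDKs and further kinases were profiled externally by radiometric assay. In-house ADP Glo assays covered CDK4/D1 and CDK6/D3 (RB-CTF substrate, pH 7.5 Tris buffer with MgCl2, DTT, BSA) and CDK9/T1 (RBER-IRStide substrate), 40 min at 37° C.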
# CDKs and other kinases [2] = target: T2, CDKs and other kinases (Homo sapiens, UniProt P24941); experiment: as above; type: biochemical; conditions: CDK2A; for Ki: read-out: CDK inhibition, Ki (μM) CDK2A; for remaining activity at 10 µM: compound at 10 μM, read-out: residual activity (%) at 10 μM CDK2A
# T2 construct: other: CDK2A; residual activity (%) at 10 μM CDK2A; compound at 10 μM
# Method in brief: as §1
# CDKs and other kinases [3] = target: T3, CDKs and other kinases (Homo sapiens, UniProt P50613); experiment: as above; type: biochemical; conditions: CDK7H; for Ki: read-out: CDK inhibition, Ki (μM) CDK7H; for remaining activity at 10 µM: compound at 10 μM, read-out: residual activity (%) at 10 μM CDK7H
# T3 construct: other: CDK7H; residual activity (%) at 10 μM CDK7H; compound at 10 μM
# Method in brief: as §1
# CDK6/D3 = CDK6/D3 (Homo sapiens, UniProt Q00534); experiment: ADP Glo Kinase assay CDK6/D3; type: biochemical; conditions: CDK6D3; compound at 10 μM; read-out: residual activity (%) at 10 μM CDK6D3
# Experimental: Eurofins Pharma Discovery or Reaction Biology Corporation Kinase Profiler services were used to measure inhibition of CDKs and other kinases by radiometric assay. Inhibition of CDK4/D1, CDK6/D3 and CDK9/T1 were also determined in-house using ADP Glo Kinase assays (Promega Corporation, Madison, USA). Briefly, the kinase reaction for CDK4/D1 and CDK6/D3 was performed with kinase reaction buffer ([…] Tris base pH 7.5, 20 mM MgCl2, 0.4 mM DTT), 0.1 mg/ml BSA and RB-CTF substrate (retinoblastoma protein 1 C-terminal fraction). For CDK9/CyclinT1, the kinase reaction was performed with standard assay buffer and Kinase Dilution Buffer and RBER-IRStide substrate. Serial dilutions of 1:3 were prepared for test compounds for 10 concentrations (from 10 μM to 0.5 nM). The kinase reactions were started by addition of ATP, incubated for 40 min at 37° C. and then stopped by adding 10 μL of ADP Glo reagent. After incubation at room temperature in the dark for 40 min, 20 μL of kinase detection reagent was added per well and incubated for 40 min. Luminescence was measured using an EnVision Multilabel plate reader (PerkinElmer, Buckinghamshire, UK). Positive and negative controls were performed in the presence and absence of CDK kinases, respectively. Half-maximal inhibition (IC50) values were calculated using a 4-parameter logistic non-linear regression model with Graphpad prism (Version 6.0). Apparent inhibition constants (Ki) values were calculated from Km (ATP) and IC50 values for the respective kinases.
# CDK9/T1, sequence (P50750 whole entry): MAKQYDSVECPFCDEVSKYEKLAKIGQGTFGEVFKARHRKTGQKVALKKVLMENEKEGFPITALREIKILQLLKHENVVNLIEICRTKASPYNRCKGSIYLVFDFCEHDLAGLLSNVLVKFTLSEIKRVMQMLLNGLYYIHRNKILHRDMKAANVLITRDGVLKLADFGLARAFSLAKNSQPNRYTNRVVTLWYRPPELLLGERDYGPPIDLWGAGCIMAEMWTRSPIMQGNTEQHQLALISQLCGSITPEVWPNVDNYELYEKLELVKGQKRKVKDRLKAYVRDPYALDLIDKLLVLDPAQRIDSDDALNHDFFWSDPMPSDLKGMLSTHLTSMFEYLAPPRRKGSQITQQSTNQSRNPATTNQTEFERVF
# CDK9/T1, sequence (O60563 whole entry partner): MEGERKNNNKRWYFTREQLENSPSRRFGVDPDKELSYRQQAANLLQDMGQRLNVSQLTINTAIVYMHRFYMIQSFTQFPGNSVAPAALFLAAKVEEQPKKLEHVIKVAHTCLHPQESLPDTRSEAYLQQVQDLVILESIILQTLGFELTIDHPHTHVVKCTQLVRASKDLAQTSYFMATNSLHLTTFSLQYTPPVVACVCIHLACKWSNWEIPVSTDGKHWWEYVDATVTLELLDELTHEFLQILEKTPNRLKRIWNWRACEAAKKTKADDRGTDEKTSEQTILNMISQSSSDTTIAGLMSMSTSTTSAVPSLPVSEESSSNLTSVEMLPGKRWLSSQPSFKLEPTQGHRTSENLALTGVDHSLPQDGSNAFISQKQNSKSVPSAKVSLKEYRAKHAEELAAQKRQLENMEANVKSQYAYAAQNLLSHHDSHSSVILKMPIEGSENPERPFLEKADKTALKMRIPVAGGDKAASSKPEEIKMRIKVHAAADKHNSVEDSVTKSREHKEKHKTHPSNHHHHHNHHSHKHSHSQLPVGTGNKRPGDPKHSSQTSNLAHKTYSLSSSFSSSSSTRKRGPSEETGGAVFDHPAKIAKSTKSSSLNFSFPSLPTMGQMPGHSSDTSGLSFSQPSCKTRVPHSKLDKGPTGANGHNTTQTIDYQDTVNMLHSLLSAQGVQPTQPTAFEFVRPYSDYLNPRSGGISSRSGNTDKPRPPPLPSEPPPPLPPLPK
# CDK4/D1, sequence (P11802 whole entry): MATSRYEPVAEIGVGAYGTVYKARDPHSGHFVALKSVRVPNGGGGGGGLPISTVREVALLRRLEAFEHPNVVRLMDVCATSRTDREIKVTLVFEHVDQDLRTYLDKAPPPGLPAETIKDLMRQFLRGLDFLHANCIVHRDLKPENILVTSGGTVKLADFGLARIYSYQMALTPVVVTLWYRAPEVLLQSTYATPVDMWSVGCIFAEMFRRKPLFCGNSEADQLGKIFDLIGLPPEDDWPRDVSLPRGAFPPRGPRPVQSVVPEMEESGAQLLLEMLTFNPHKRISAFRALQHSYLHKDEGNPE
# CDK4/D1, sequence (P24385 whole entry partner): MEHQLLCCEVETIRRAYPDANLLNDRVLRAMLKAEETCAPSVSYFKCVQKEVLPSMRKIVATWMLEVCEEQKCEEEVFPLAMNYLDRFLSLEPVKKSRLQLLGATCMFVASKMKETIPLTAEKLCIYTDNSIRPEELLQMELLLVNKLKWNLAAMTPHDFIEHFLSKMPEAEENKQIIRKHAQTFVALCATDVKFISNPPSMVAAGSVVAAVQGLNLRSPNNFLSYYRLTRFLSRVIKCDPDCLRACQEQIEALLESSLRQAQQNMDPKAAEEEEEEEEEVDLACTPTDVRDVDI
# CDK6/D3, sequence (Q00534 whole entry): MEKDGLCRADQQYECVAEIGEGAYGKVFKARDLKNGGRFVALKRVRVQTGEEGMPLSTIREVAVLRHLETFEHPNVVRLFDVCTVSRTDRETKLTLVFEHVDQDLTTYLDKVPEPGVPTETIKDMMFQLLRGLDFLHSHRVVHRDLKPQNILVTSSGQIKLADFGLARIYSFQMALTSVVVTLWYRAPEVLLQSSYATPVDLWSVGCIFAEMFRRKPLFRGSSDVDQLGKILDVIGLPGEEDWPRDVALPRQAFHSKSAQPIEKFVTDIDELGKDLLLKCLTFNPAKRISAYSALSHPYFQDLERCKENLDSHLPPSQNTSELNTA
# CDK6/D3, sequence (P30281 whole entry partner): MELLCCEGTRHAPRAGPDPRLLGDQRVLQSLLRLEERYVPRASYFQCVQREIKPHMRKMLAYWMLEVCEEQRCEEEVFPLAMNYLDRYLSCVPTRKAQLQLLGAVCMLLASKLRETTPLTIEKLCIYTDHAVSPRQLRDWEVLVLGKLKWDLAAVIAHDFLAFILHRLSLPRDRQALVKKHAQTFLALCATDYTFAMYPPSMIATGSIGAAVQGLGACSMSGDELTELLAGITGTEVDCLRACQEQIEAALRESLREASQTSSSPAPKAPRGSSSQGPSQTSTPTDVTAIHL
# T3 sequence (P50613 whole entry): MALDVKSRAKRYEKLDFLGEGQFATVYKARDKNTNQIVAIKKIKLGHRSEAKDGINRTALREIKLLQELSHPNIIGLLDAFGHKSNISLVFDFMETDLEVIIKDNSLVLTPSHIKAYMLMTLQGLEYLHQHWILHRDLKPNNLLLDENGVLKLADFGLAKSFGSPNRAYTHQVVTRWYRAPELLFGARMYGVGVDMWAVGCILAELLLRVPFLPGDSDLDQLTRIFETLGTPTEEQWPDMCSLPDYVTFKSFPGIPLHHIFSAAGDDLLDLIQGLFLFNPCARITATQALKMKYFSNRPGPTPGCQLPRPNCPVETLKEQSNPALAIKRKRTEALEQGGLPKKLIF
# T1 sequence (P06493 whole entry): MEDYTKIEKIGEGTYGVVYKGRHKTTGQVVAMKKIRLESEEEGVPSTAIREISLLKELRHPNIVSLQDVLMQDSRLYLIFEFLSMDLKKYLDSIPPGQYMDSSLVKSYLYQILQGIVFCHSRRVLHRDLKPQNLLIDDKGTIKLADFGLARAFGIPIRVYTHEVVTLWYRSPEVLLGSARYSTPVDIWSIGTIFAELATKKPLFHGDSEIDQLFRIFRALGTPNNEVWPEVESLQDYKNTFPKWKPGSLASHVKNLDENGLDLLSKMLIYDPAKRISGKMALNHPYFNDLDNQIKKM
Structure (SMILES),remaining activity at 10 µM (CDK4/D1) [%],GI50 (leukemia cell lines) [µM],Ki (CDK9/T1) [µM],Ki (CDKs and other kinases [1]) [µM],Ki (CDKs and other kinases [2]) [µM],Ki (CDKs and other kinases [3]) [µM],remaining activity at 10 µM (CDK6/D3) [%],remaining activity at 10 µM (CDKs and other kinases [1]) [%],remaining activity at 10 µM (CDKs and other kinases [2]) [%],remaining activity at 10 µM (CDKs and other kinases [3]) [%]
"N[C@H]1CC[C@H](Nc2ncc(Cl)c(-c3cnc4c(Br)cc(C(F)(F)F)cn34)n2)CC1 [Compound 14, (1r,4r)-N^1-(4-(8-Bromo-6-(trifluoromethyl)imidazo[1,2-a]pyridin-3-yl)-5-chloropyrimidin-2-yl)cyclohexane-1,4-diamine]",3,0.368 ± 0.129,0.007,0.755,0.115,0.04,17,–,–,–
"COC(=O)CN[C@H]1CC[C@H](Nc2ncc(F)c(-c3cnc4ccccn34)n2)CC1 [Compound 15, Methyl ((1r,4r)-4-((5-fluoro-4-(imidazo[1,2-a]pyridin-3-yl)pyrimidin-2-yl)amino)cyclohexyl)glycinate]",0,0.05 ± 0.009,0.014,0.07,0.027,0.15,13,–,–,–
"CS(=O)(=O)N[C@H]1CC[C@H](Nc2ncc(Cl)c(-c3cnc4c(Br)cc(C(F)(F)F)cn34)n2)CC1 [Compound 18, N-((1r,4r)-4-((4-(8-Bromo-6-(trifluoromethyl)imidazo [1,2-a]pyridin-3-yl)-5-chloropyrimidin-2-yl)amino)cyclohexyl)methanesulfonamide]",9,6.11 ± 1.14,0.148,0.028,0.007,0.001,41,–,–,–
"Fc1cnc(NC2CCN(CC3CC3)CC2)nc1-c1cnc2ccccn12 [Compound 22, N-(1-(Cyclopropylmethyl)piperidin-4-yl)-5-fluoro-4-(imidazo[1,2-a]pyridin-3-yl)pyrimidin-2-amine]",2,0.041 ± 0.012,0.095,1.06,1.12,0.437,42,–,–,–
"COC(=O)CN1CCC(Nc2ncc(F)c(-c3cnc4ccccn34)n2)CC1 [Compound 23, Methyl 2-(4-((5-fluoro-4-(imidazo[1,2-a]pyridin-3-yl)pyrimidin-2-yl)amino)piperidin-1-yl)acetate]",0,0.28 ± 0.049,0.063,0.258,0.155,0.885,39,–,–,–
"CS(=O)(=O)N1CCC(Nc2ncc(F)c(-c3cnc4ccccn34)n2)CC1 [Compound 24, 5-Fluoro-4-(imidazo[1,2-a]pyridin-3-yl)-N-(1-(methylsulfonyl)piperidin-4-yl)pyrimidin-2-amine]",-16,0.506 ± 0.104,0.141,–,–,0.281,18,-1,-1,–
"Fc1cnc(N[C@H]2CC[C@H](Nc3ccccn3)CC2)nc1-c1cnc2ccc(-c3ccccc3)cn12 [Compound 28, (1r,4r)-N^1-(5-Fluoro-4-(6-phenylimidazo[1,2-a]pyridin-3-yl)pyrimidin-2-yl)-N4-(pyridin-2-yl)cyclohexane-1,4-diamine]",95,0.042 ± 0.017,0.85,–,–,–,100,4,8,2

# Now those with a lower GI50 (leukemia cell lines), led by results:
remaining activity at 10 µM (CDK4/D1) [%],GI50 (leukemia cell lines) [µM],Ki (CDK9/T1) [µM],Ki (CDKs and other kinases [1]) [µM],Ki (CDKs and other kinases [2]) [µM],Ki (CDKs and other kinases [3]) [µM],remaining activity at 10 µM (CDK6/D3) [%],remaining activity at 10 µM (CDKs and other kinases [1]) [%],remaining activity at 10 µM (CDKs and other kinases [2]) [%],remaining activity at 10 µM (CDKs and other kinases [3]) [%],Structure (SMILES)
45,0.008 ± 0.002,0.009,0.266,0.08,0.23,58,–,–,–,"Cc1cnc(N[C@H]2CC[C@H](N)CC2)nc1-c1cnc2ccc(C(F)(F)F)cn12 [Compound 9, (1r,4r)-N^1-(5-Methyl-4-(6-(trifluoromethyl)imidazo[1,2-a]pyridin-3-yl)pyrimidin-2-yl)cyclohexane-1,4-diamine]"
40,0.009 ± 0.001,0.291,–,–,–,27,75,63,26,"COc1cnc(N[C@H]2CC[C@H](N)CC2)nc1-c1cnc2ccccn12 [Compound 11, (1r,4r)-N^1-(4-(Imidazo[1,2-a]pyridin-3-yl)-5-methoxypyrimidin-2-yl)cyclohexane-1,4-diamine]"
4,0.006 ± 0.001,0.008,0.121,0.013,0.032,41,–,–,–,"N[C@H]1CC[C@H](Nc2ncc(Cl)c(-c3cnc4ccc(Br)cn34)n2)CC1 [Compound 12, (1r,4r)-N^1-(4-(6-Bromoimidazo[1,2-a]pyridin-3-yl)-5-chloropyrimidin-2-yl)cyclohexane-1,4-diamine]"
0,0.022 ± 0.002,0.024,0.329,0.063,0.052,59,–,–,–,"N[C@H]1CC[C@H](Nc2ncc(Cl)c(-c3cnc4ccc(C(F)(F)F)cn34)n2)CC1 [Compound 13, (1r,4r)-N^1-(5-Chloro-4-(6-(trifluoromethyl)imidazo[1,2-a]pyridin-3-yl)pyrimidin-2-yl)cyclohexane-1,4-diamine]"
1,< 0.001,0.062,0.004,0.0004,0.001,26,–,–,–,"CS(=O)(=O)N[C@H]1CC[C@H](Nc2ncc(Cl)c(-c3cnc4ccc(Br)cn34)n2)CC1 [Compound 17, N-((1r,4r)-4-((4-(6-Bromoimidazo[1,2-a]pyridin-3-yl)-5-chloropyrimidin-2-yl)amino)cyclohexyl) methanesulfonamide]"
4,< 0.001,0.003,–,–,–,4,3,2,1,"N[C@H]1CC[C@H](Nc2ncc(F)c(-c3cnc4ccc(Nc5cccc(F)c5)cn34)n2)CC1 [Compound 25, (1r,4r)-N^1-(5-Fluoro-4-(6-((3-fluorophenyl)amino)imidazo[1,2-a]pyridin-3-yl)pyrimidin-2-yl) cyclohexane-1,4-diamine]"
9,< 0.001,0.003,–,–,–,24,7,5,0,"N[C@H]1CC[C@H](Nc2ncc(F)c(-c3cnc4ccc(-c5cccnc5)cn34)n2)CC1 [Compound 26, (1r,4r)-N^1-(5-Fluoro-4-(6-(pyridin-3-yl)imidazo[1,2-a]pyridin-3-yl)pyrimidin-2-yl)cyclohexane-1,4-diamine]"
4,< 0.001,0.003,–,–,–,15,-1,4,2,"N[C@H]1CC[C@H](Nc2ncc(F)c(-c3cnc4ccc(-c5ncccc5F)cn34)n2)CC1 [Compound 27, (1r,4r)-N^1-(5-Fluoro-4-(6-(3-fluoropyridin-2-yl)imidazo [1,2-a]pyridin-3-yl)pyrimidin-2-yl)cyclohexane-1,4-diamine]"
